Assay results: ChEMBL document CHEMBL4043177 (Bioorg Med Chem, 2017)

Experiments:
Orexin receptor type 2 = biological target: T1, Orexin receptor type 2 (Homo sapiens, UniProt O43614); experiment: Antagonist activity at human OX2R expressed in CHO cells assessed as reduction in [Ala6,12]orexin-A-induced intracellular Ca2+ mobilization incubated for 30 mins by Fluo-4AM dye based fluorescence assay; type: functional, cell-based
T1 sequence (O43614 whole entry): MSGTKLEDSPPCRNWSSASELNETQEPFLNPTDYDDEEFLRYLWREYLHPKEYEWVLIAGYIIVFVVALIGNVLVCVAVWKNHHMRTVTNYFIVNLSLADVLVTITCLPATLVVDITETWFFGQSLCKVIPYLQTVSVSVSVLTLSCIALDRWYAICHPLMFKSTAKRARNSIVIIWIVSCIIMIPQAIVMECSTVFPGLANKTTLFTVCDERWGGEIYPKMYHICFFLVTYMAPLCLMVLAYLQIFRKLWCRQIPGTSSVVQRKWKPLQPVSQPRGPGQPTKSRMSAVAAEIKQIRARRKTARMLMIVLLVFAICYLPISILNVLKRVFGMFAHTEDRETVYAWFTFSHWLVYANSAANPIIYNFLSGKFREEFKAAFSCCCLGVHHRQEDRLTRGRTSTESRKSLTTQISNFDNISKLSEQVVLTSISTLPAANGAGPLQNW

Homo sapiens [1] = species on record: Homo sapiens; experiment: Selectivity index, ratio of IC50 for human OX2R expressed in CHO cells to IC50 for human OX1R expressed in CHO cells; type: cell-based
[2] = biological target: T2, Orexin/Hypocretin receptor type 1 (Homo sapiens, UniProt O43613); experiment: Antagonist activity at human OX1R expressed in CHO cells assessed as reduction in [Ala6,12]orexin-A-induced intracellular Ca2+ mobilization incubated for 30 mins by Fluo-4AM dye based fluorescence assay; type: functional, cell-based
T2 sequence (O43613 whole entry): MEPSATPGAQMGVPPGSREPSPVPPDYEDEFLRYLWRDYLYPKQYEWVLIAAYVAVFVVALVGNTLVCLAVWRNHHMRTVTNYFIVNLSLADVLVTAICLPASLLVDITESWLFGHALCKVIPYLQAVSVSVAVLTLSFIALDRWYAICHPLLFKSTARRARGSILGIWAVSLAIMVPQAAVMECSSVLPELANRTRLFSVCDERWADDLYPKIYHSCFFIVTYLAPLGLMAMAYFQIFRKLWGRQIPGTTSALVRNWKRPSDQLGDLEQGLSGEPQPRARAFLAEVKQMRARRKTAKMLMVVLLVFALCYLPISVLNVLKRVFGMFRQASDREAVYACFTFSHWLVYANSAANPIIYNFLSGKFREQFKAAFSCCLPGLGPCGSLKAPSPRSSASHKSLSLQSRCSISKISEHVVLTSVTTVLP

Homo sapiens [3] = species on record: Homo sapiens; experiment: Selectivity index, ratio of IC50 for OX2R expressed in CHO cells to IC50 for human OX1R expressed in CHO cells; type: cell-based

Row | SMILES | IC50 (Orexin receptor type 2) | IC50 [2] | Ratio IC50 (Homo sapiens [1]) | Ratio IC50 (Homo sapiens [3])
1 | CCN(C(=O)c1cc(F)ccc1-n1nccn1)[C@@H](C)Cc1noc(-c2ccc(F)cc2)n1 | 23.6 nM | 1.26 nM | 19 | 
2 | CCN(C(=O)c1nc(C)ccc1-n1nccn1)[C@@H](C)Cn1nnc(-c2ccc(F)cc2)n1 | 119 nM | 1.84 nM | 65 | 
3 | CCN(C(=O)c1cc(F)ccc1-n1nccn1)[C@@H](C)Cn1nnc(-c2ccc(F)cc2)n1 | 139 nM | 3.06 nM | 45 | 
4 | Cc1ccc(-n2nccn2)c(C(=O)NCCn2ccc(-c3ccc(F)cn3)n2)c1 | 198 nM | 119 nM | 1.7 | 
5 | CCN(C(=O)c1cc(C)ccc1-n1nccn1)[C@H](C)Cn1ccc(-c2ccc(F)cn2)n1 | 250 nM | 86.6 nM | 2.9 | 
6 | Cc1ccc(-n2nccn2)c(C(=O)NCCn2cc(-c3ccc(F)cn3)cn2)c1 |  | 908 nM |  | 
7 | CCN(C(=O)c1cc(C)ccc1-c1ncccn1)[C@@H](C)Cn1nnc(-c2ccc(F)cc2)n1 | 36 nM | 1.81 nM | 20 | 
8 | CCN(C(=O)c1nc(C)ccc1-c1ncccn1)[C@@H](C)Cc1noc(-c2ccc(F)cc2)n1 | 254 nM | 3.58 nM | 71 | 
9 | Cc1ccc(-n2nccn2)c(C(=O)N[C@@H](C)Cn2ccc(-c3ccc(F)cn3)n2)c1 | 58.4 nM | 10.1 nM | 5.8 | 
10 | Cc1ccc(-n2nccn2)c(C(=O)N(C)CCn2cc(-c3ccc(F)cn3)cn2)c1 | 51.7 nM | 56.1 nM | 0.92 | 
11 | Cc1ccc(-n2nccn2)c(C(=O)N(C)[C@H](Cn2ccc(-c3ccc(F)cn3)n2)C(C)C)c1 | 952 nM | 61.5 nM | 16 | 
12 | Cc1ccc(-n2nccn2)c(C(=O)N(C)[C@@H](C)Cn2cc(-c3ccc(F)cn3)cn2)c1 | 21.2 nM | 4.39 nM | 4.8 | 
13 | CCN(C(=O)c1cc(F)ccc1-n1nccn1)[C@@H](C)Cn1nnc(-c2ccc(F)cn2)n1 | 471 nM | 9.45 nM | 50 | 
14 | CCN(C(=O)c1cc(F)ccc1-c1ncccn1)[C@@H](C)Cc1noc(-c2ccc(F)cc2)n1 | 80.1 nM | 1.58 nM | 51 | 
15 | CCN(C(=O)c1cc(C)ccc1-n1nccn1)[C@@H](C)Cn1cc(-c2ccc(F)cn2)nn1 | 22.8 nM | 1.93 nM | 12 | 
16 | CCN(C(=O)c1nc(C)ccc1-n1nccn1)[C@@H](C)Cc1noc(-c2ccc(F)cc2)n1 | 40.5 nM | 1.82 nM | 22 | 
17 | CCN(C(=O)c1cc(C)ccc1-c1ncccn1)[C@@H](C)Cn1nnc(-c2ccc(F)cn2)n1 | 129 nM | 10.6 nM | 12 | 
18 | Cc1ccc(-n2nccn2)c(C(=O)N[C@@H](C)Cn2cc(-c3ccc(F)cn3)cn2)c1 | 840 nM | 245 nM | 3.4 | 
19 | CCN(C(=O)c1cc(F)ccc1-n1nccn1)[C@@H](C)Cc1noc(-c2ccc(F)cn2)n1 | 887 nM | 14.7 nM | 60 | 
20 | CCN(C(=O)c1ccccc1-n1nccn1)[C@@H](C)Cn1nnc(-c2ccc(F)cc2)n1 | 61 nM | 2.45 nM | 25 | 
21 | Cc1nc2ccc(NC(=O)Nc3ccnc4cccnc34)cc2o1 |  |  |  | 50
22 | CC[C@@H](Cn1ccc(-c2ccc(F)cn2)n1)N(C)C(=O)c1cc(C)ccc1-n1nccn1 | 29 nM | 4.39 nM | 6.6 | 
23 | CCN(C(=O)c1cc(C)ccc1-c1ncccn1)[C@@H](C)Cc1noc(-c2ccc(F)cn2)n1 | 43.2 nM | 3.24 nM | 13 | 
24 | CCN(C(=O)c1cc(C)ccc1-n1nccn1)[C@@H](C)Cn1nnc(-c2ccc(F)cn2)n1 | 17.9 nM | 1.1 nM | 16 | 

The remaining compounds from weak to strong by IC50 (Orexin receptor type 2), led by results:

Row | IC50 (Orexin receptor type 2) | IC50 [2] | SMILES | Ratio IC50 (Homo sapiens [1]) | Ratio IC50 (Homo sapiens [3])
25 | 14.2 nM | 9.06 nM | CCN(CCn1cc(-c2ccc(F)cn2)cn1)C(=O)c1cc(C)ccc1-n1nccn1 | 1.6 | 
26 | 11.9 nM |  | Cc1ccc(-n2nccn2)c(C(=O)N(C)CCn2ccc(-c3ccc(F)cn3)n2)c1 | 2.1 | 
27 | 11.6 nM | 1.25 nM | CCN(C(=O)c1ccccc1-n1nccn1)[C@@H](C)Cc1noc(-c2ccc(F)cc2)n1 | 9.3 | 
28 | 11.3 nM | 1.26 nM | CCN(C(=O)c1cc(C)ccc1-n1nccn1)[C@@H](C)Cc1noc(-c2ccc(F)cn2)n1 | 9 | 
29 | 8.85 nM |  | CCN(C(=O)c1cc(C)ccc1-c1ncccn1)[C@@H](C)Cc1noc(-c2ccc(F)cc2)n1 | 6.3 | 
30 | 5.87 nM | 0.767 nM | CCN(C(=O)c1cc(C)ccc1-n1nccn1)[C@@H](C)Cn1cc(-c2ccc(F)cn2)cn1 | 7.7 | 
31 | 5.68 nM | 1.9 nM | Cc1ccc(-n2nccn2)c(C(=O)N(C)[C@@H](C)Cn2ccc(-c3ccc(F)cn3)n2)c1 | 3 | 
32 | 2.81 nM | 3.22 nM | CCN(CCn1ccc(-c2ccc(F)cn2)n1)C(=O)c1cc(C)ccc1-n1nccn1 | 0.87 | 
33 | 2.73 nM | 1.07 nM | CCN(C(=O)c1cc(C)ccc1-n1nccn1)[C@@H](C)Cc1noc(-c2ccc(F)cc2)n1 | 2.6 | 
34 | 2.57 nM | 0.82 nM | CCN(C(=O)c1cc(C)ccc1-n1nccn1)[C@@H](C)Cn1nnc(-c2ccc(F)cc2)n1 | 3.1 | 
35 | 1.61 nM | 1.62 nM | CCN(C(=O)c1cc(C)ccc1-n1nccn1)[C@@H](C)Cn1ccc(-c2ccc(F)cn2)n1 | 1 | 
